Reference: EP4647073A1, “MURRAYA KOENIGII IN THE TREATMENT OF UPPER RESPIRATORY TRACT INFECTIONS” (Nutraceutical Technology Pharma Biotech S.r.l., priority 2024, dated 2025)

How the values were obtained:
[1] = tested on: S. pyogenes (ATCC 19615); assay: Agar well diffusion method, antibacterial activity; format: cell-based; settings: Streptococcus pyogenes
Method: The agar well diffusion method was used for the assessment of the antibacterial activity of M. koenigii leaves against S. pyogenes (ATCC 19615). Six DMSO extracts of M. koenigii leaves from different geographical origins were tested. Antibacterial assay was performed on M17 agar ([…] Abruzzi, Italy). An overnight anaerobic culture of S. pyogenes grown at 37°C, was diluted in order to obtain a suspension containing approximately 1×10^8 CFU/ml. Each agar plate was spread with the microbial suspension. Using a sterile agar gel puncher, equidistant wells were created and filled with 0.1 ml of each sample. The plates were allowed to stand for 30 minutes to allow pre-diffusion of the tested samples, and thereafter incubated at 37°C for 24 h under anaerobic conditions. After incubation, the diameter of any zone of inhibition surrounding each well was measured. Each experiment was performed in triplicates and the means were calculated. […] Louis, USA). Each standard was weighed separately, solubilized in methanol and diluted in DMSO. […] Antibacterial assay was performed on M17 agar ([…] Abruzzi, 25 Italy). An overnight anaerobic culture of S. pyogenes, grown at 37°C, was diluted approximately to obtain 1×10^8 CFU/ml and spread on M17 agar. Using a sterile agar gel puncher, equidistant wells were created and filled with 0.1 ml of each extraction solvent. The plate was allowed to stand for 30 minutes to allow pre-diffusion of the tested samples, and thereafter incubated at 37°C. The zone of inhibition around each well was measured in mm.

[2] = Release of carbazole alkaloids from the chewing gum of Example 5 during chewing (HPLC/DAD of chewed bolus); format: in vivo, healthy adult volunteers; settings: average of three chewers
Method: The chromatographic separation was performed by an HPLC/DAD system series 1200 from Agilent (Agilent Technologies, Santa […], California, USA); the analytical column was a Kinetex C18 5um, 100A (150 mm x 3.00 mm i.d.) from Phenomenex (Phenomenex SRL, Bologna; Italy) equipped with a security guard column. […] The elution of the analytes was carried out with a gradient method: initial condition was 40% of ACN, then brought to 90% in 10 minutes and kept for 8 minutes. […] An aliquot of each solution was withdrawn in order to prepare a mix standard solution and a calibration curve from 0.5 ppm to 4.0 ppm in MeOH was created for the quantification of samples. […] Each chewed bolus of the resulting 4 chewing tests, was frozen overnight and then weighed, ground and added with MeOH. The supernatant was filtered and analysed by HPLC/DAD. In Table 4 below, the release results are reported, being focused on the main actives of M. koenigii. Table 4: […]

[3] = tested on: S. pyogenes; assay: TTC assay (broth microdilution) for MIC and MBC determination; format: cell-based, Streptococcus pyogenes; settings: for inhibition at 250 µg/mL (stock) / OD 480 nm (24 h) / OD 600 nm (24 h) / log10 (CFU/ml): duplicate wells
Method: Louis, MO) as colorimetric indicator. In the presence of living bacteria, the colourless TTC is reduced to red formazan. […] Two different stock solutions of M. koenigii leaves were prepared in DMSO at concentrations of 100 mg/ml (1:10) and 20 mg/ml (1:50). Two-fold dilution method was performed in order to obtain a concentration range of 0.04 mg/ml to 10 mg/ml for the 20 mg/ml stock solution and of 0.2 mg/ml to 50 mg/ml for the 100 mg/ml stock solution. An overnight anaerobic culture of S. pyogenes grown at 37°C was adjusted to a final concentration of 1x10^7 CFU/ml in M17 broth ([…] Abruzzi, Italy) and added to the microplate wells containing different concentrations of the extract, in order to obtain a final inoculum of approximately 1x10^6 CFU/well. The microplate was incubated at 37°C under anaerobic conditions for 24 h. […] To discriminate between bactericidal/bacteriostatic activity of the extract, 100 μl aliquots from each tested dilution were used to calculate the number of viable cells (CFU/ml) by plate count method and 10 μl aliquots from the same wells were streaked on M17 agar plates (Figure 3). […] TTC assay is depicted in Figure 4, where a picture of the microplate used for the TTC assay is reported. […] Table 2: Antibacterial activity of DMSO extract of M. koenigii leaves against S. pyogenes. All results are the mean of triplicates wells. […] Medium M17 (blank), positive control (S. pyogenes without M. koenigii), Ext. (Extract). A stock solution of amoxicillin (Sigma-Aldrich, St. Louis, USA) was prepared at a concentration of 0.25 mg/ml in DMSO. The antibacterial properties against S. pyogenes of the plant extract alone, amoxicillin alone and their combination were evaluated by TTC assay as mentioned above. For the experiment, the 20 mg/ml stock solution of M. koenigii leaves was used and a solution containing 0.25 mg/ml amoxicillin and 20 mg/ml extract was prepared.

[4] = Table 3, dilution 1:2 of stock (amoxicillin 0.25 mg/ml; mix 0.25 mg/ml amoxicillin and 20 mg/ml extract)
[5] = Table 3, dilution 1:4 of stock (amoxicillin 0.25 mg/ml; mix 0.25 mg/ml amoxicillin and 20 mg/ml extract)
[6] = Table 3, dilution 1:8 of stock (amoxicillin 0.25 mg/ml; mix 0.25 mg/ml amoxicillin and 20 mg/ml extract)
[7] = Table 3, dilution 1:16 of stock (amoxicillin 0.25 mg/ml; mix 0.25 mg/ml amoxicillin and 20 mg/ml extract)
[8] = Table 3, dilution 1:32 of stock (amoxicillin 0.25 mg/ml; mix 0.25 mg/ml amoxicillin and 20 mg/ml extract)
[9] = Table 3, dilution 1:64 of stock (amoxicillin 0.25 mg/ml; mix 0.25 mg/ml amoxicillin and 20 mg/ml extract)
[10] = Table 3, dilution 1:128 of stock (amoxicillin 0.25 mg/ml; mix 0.25 mg/ml amoxicillin and 20 mg/ml extract)

Molecule COc1cc2[nH]c3c4c(c(C)cc3c2cc1OC)OC(C)(C)C=C4 [Koenigicine] has a zone of inhibition at 3 µg/mL ([1]; ATCC19615, standard at 3 µg/ml, 0.1 ml per well, M17 agar, 37°C) of about 20 mm.

For CC(C)=CCCC1(C)C=Cc2c(c(C)cc3c2[nH]c2ccccc23)O1 (centres unmarked) [Mahanimbine], the zone of inhibition at 6 µg/mL ([1]; ATCC19615, read-out: inhibition zone) was about 20 mm, the “% release” value ([2]; chewing gum of Example 5, chewing time 0.0 min) was 0.0% and the “% release” value ([2]; chewing gum of Example 5, chewing time 5.0 min) was 54.7%. For the same molecule, the “% release” value ([2]; chewing gum of Example 5, chewing time 10.0 min) was 51.5%, the “% release” value ([2]; chewing gum of Example 5, chewing time 15.0 min) was 59.7% and the “% release” value ([2]; chewing gum of Example 5, chewing time 20.0 min) was 54.7%.

Work on CC1(C)S[C@@H]2[C@H](NC(=O)[C@H](N)c3ccc(O)cc3)C(=O)N2[C@H]1C(=O)O [Amoxicillin, amoxicillin] yielded an inhibition at 250 µg/mL (stock) ([3]; Streptococcus pyogenes, Table 3, dilution 1:2 of stock (amoxicillin 0.25 mg/ml; mix 0.25 mg/ml amoxicillin and 20 mg/ml extract)) of 100%, an inhibition at 250 µg/mL (stock) ([3]; Streptococcus pyogenes, Table 3, dilution 1:4 of stock (amoxicillin 0.25 mg/ml; mix 0.25 mg/ml amoxicillin and 20 mg/ml extract)) of 100% and an inhibition at 250 µg/mL (stock) ([3]; Streptococcus pyogenes, Table 3, dilution 1:8 of stock (amoxicillin 0.25 mg/ml; mix 0.25 mg/ml amoxicillin and 20 mg/ml extract)) of 100%. For the same molecule, the inhibition at 250 µg/mL (stock) ([3]; Streptococcus pyogenes, Table 3, dilution 1:16 of stock (amoxicillin 0.25 mg/ml; mix 0.25 mg/ml amoxicillin and 20 mg/ml extract)) was 48.6%, the inhibition at 250 µg/mL (stock) ([3]; Streptococcus pyogenes, Table 3, dilution 1:32 of stock (amoxicillin 0.25 mg/ml; mix 0.25 mg/ml amoxicillin and 20 mg/ml extract)) was 40.6% and the inhibition at 250 µg/mL (stock) ([3]; Streptococcus pyogenes, Table 3, dilution 1:64 of stock (amoxicillin 0.25 mg/ml; mix 0.25 mg/ml amoxicillin and 20 mg/ml extract)) was 41.5%. It also gave an inhibition at 250 µg/mL (stock) ([3]; Streptococcus pyogenes, Table 3, dilution 1:128 of stock (amoxicillin 0.25 mg/ml; mix 0.25 mg/ml amoxicillin and 20 mg/ml extract)) of 42%, an MIC ([3]; Streptococcus pyogenes, M17 broth, 37°C, anaerobic, 24 h) of 16 µg/mL and an MBC ([3]; Streptococcus pyogenes, M17 broth, 37°C, anaerobic, 24 h, complete inhibition of growth) of 31 µg/mL. The “OD 480 nm (24 h)” value [3, 4] was 0.003, the “OD 600 nm (24 h)” value [3, 4] was 0.002 and the “log10 (CFU/ml)” value [3, 4] was 0.00 log10 (CFU/ml). The “OD 480 nm (24 h)” value [3, 5] was 0.001, the “OD 600 nm (24 h)” value [3, 5] was 0.011 and the “log10 (CFU/ml)” value [3, 5] was 0.00 log10 (CFU/ml). For the same molecule, the “OD 480 nm (24 h)” value [3, 6] was 0.005, the “OD 600 nm (24 h)” value [3, 6] was 0.026 and the “log10 (CFU/ml)” value [3, 6] was 0.00 log10 (CFU/ml). The “OD 480 nm (24 h)” value [3, 7] was 0.057, the “OD 600 nm (24 h)” value [3, 7] was 0.088 and the “log10 (CFU/ml)” value [3, 7] was 4.51 log10 (CFU/ml). For the same molecule, the “OD 480 nm (24 h)” value [3, 8] was 0.098, the “OD 600 nm (24 h)” value [3, 8] was 0.137 and the “log10 (CFU/ml)” value [3, 8] was 5.20 log10 (CFU/ml). For the same molecule, the “OD 480 nm (24 h)” value [3, 9] was 0.120, the “OD 600 nm (24 h)” value [3, 9] was 0.158 and the “log10 (CFU/ml)” value [3, 9] was 5.12 log10 (CFU/ml). For the same molecule, the “OD 480 nm (24 h)” value [3, 10] was 0.140, the “OD 600 nm (24 h)” value [3, 10] was 0.161 and the “log10 (CFU/ml)” value [3, 10] was 5.08 log10 (CFU/ml).

For COc1ccc2[nH]c3c4c(c(C)cc3c2c1)OC(C)(C)C=C4 [Koenimbine], the zone of inhibition at 4 µg/mL ([1]; ATCC19615, standard at 4 µg/ml, 0.1 ml per well, M17 agar, 37°C) was about 18 mm.
